The target of this assay is Influenza PB2 (Influenza A virus, UniProt P03428). Kind of assay: biochemical. The assay is classed as binding. The settings on record: read-out: Influenza PB2 affinity, IC50.
Influenza PB2, sequence (P03428 whole entry, looked up): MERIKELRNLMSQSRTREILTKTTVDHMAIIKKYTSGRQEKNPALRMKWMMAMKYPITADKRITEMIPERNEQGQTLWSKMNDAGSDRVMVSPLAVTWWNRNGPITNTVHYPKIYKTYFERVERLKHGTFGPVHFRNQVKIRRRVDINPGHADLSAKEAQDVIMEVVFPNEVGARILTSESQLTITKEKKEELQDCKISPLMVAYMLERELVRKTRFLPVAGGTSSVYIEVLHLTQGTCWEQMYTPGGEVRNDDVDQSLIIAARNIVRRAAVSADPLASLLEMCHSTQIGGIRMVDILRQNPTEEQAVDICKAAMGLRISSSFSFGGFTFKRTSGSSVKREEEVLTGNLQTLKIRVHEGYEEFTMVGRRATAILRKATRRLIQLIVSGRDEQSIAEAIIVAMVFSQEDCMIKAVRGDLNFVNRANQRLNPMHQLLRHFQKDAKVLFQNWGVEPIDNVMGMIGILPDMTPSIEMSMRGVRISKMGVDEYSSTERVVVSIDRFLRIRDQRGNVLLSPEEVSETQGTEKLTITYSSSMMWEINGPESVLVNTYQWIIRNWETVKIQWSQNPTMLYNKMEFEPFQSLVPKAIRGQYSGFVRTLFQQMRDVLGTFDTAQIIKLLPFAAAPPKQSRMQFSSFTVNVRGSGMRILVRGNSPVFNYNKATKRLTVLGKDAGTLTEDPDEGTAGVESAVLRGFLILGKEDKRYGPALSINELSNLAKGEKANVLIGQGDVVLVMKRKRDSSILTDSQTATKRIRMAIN

For the molecule `CCOC(=O)[C@@H]1C2CCC(CC2)[C@H]1n1cc(-c2ccsc2)c2cnc(-c3c[nH]c4ncc(F)cc34)nc21` [Compound B183], the half-maximal inhibitory concentration (IC50) lay in the range of 10 to 100 µM.
The result for `CNC(=O)[C@@H]1C2CCC(CC2)C1n1cc(F)c2cnc(-c3c[nH]c4ncc(Cl)cc34)nc21` (single isomer, unassigned) [Compound B194] reads 1 to 10 µM; that for `CC(C)(C)C(C(=O)O)n1ccc2cnc(-c3c[nH]c4ncc(F)cc34)nc21` (stereo not drawn) [Compound B84], 1 to 10 µM; that for `O=C(O)C1=C(n2cc(F)c3cnc(-c4c[nH]c5ncc(Cl)cc45)nc32)CCCC1` [Compound B103], less than 1 µM.
As for `CNC(=O)CCn1cc(-c2c[nH]c3ncc(F)cc23)c2cncnc21` [Compound C11], the figure is greater than 100 µM; as for `O=C(O)CNC(=O)Cn1ccc2c(-c3c[nH]c4ncc(F)cc34)ncnc21` [Compound A6], 10 to 100 µM.
As for `O=C(O)/C=C/n1ccc2cnc(-c3c[nH]c4ncc(F)cc34)nc21` [Compound B18], the figure is 10 to 100 µM; as for `C[C@@]1(C(=O)O)CCCC[C@H]1n1cc(Cl)c2cnc(-c3c[nH]c4ncc(F)cc34)nc21` [Compound B72], less than 1 µM; as for `CCOC(=O)[C@@H]1C2CCC(CC2)[C@H]1n1cc(C#CC2CC2)c2cnc(-c3c[nH]c4ncc(F)cc34)nc21` [Compound B154], 10 to 100 µM.
Take `COC(=O)[C@]1(C)CCCC[C@H]1n1cc(Cl)c2cnc(-c3c[nH]c4ncc(F)cc34)nc21` [Compound B66]: the IC50 lay in the range of 10 to 100 µM.
`O=C(O)[C@@H]1C2CCC(CC2)C1n1cc(-c2ccncc2)c2cnc(-c3c[nH]c4ncc(Cl)cc34)nc21` (single isomer, unassigned) [Compound B190]: the IC50 was 1 to 10 µM.
`CC(Cn1cc(-c2c[nH]c3ncc(F)cc23)c2cncnc21)C(=O)N(C)C` (stereo not drawn) [Compound C6]: the IC50 was in the range of 10 to 100 µM.
As for `CN(C)C(=O)N[C@H]1CC[C@@H](n2ccc3cnc(-c4c[nH]c5ncc(F)cc45)nc32)CC1` [Compound B70], the figure is 10 to 100 µM.
Regarding `O=C(O)[C@@H]1C2CCC(CC2)[C@H]1n1ccc2ccc(-c3c[nH]c4ncc(F)cc34)cc21` [Compound B198], the IC50 was in the range of 10 to 100 µM.
In the case of `O=C(O)[C@@H]1C2CCC(CC2)C1n1cc(F)c2cnc(-c3c[nH]c4ncc(Cl)cc34)nc21` (single isomer, unassigned) [Compound B144], the half-inhibitory concentration (IC50) is less than 1 µM.
The result for `CCOC(=O)[C@@H]1C2CCC(CC2)[C@H]1n1cc(CCc2ccccn2)c2cnc(-c3c[nH]c4ncc(F)cc34)nc21` [Compound B184] reads 10 to 100 µM; that for `CCOC(=O)[C@@H]1C2CCC(CC2)[C@H]1n1cc(C#CCCC#N)c2cnc(-c3c[nH]c4ncc(F)cc34)nc21` [Compound B203], 10 to 100 µM; that for `CNC(=O)N1CCCCC1Cn1cc(F)c2cnc(-c3c[nH]c4ncc(F)cc34)nc21` (stereo not drawn) [Compound B85], 1 to 10 µM.
As for `CCOCCOCCOCCNC(=O)N[C@H]1CCC[C@@H](n2ccc3cnc(-c4c[nH]c5ncc(F)cc45)nc32)C1` [Compound B27], the figure is 10 to 100 µM; as for `COC(=O)[C@H]1CCCC[C@@H]1n1ccc2cnc(-c3c[nH]c4ncc(F)cc34)nc21` [Compound B20], 10 to 100 µM.
With `O=C(O)CCn1ccc2cnc(-c3c[nH]c4ncc(F)cc34)nc21` [Compound B5], the IC50 lay in the range of 10 to 100 µM.
The result for `O=C(O)[C@@H]1C2CCC(CC2)[C@H]1n1ccc2cnc(-c3c[nH]c4ncc(F)cc34)cc21` [Compound B208] reads 1 to 10 µM; that for `CCOC(=O)[C@H]1C2CCC(CC2)[C@@H]1n1cc(Cl)c2cnc(-c3cn(S(=O)(=O)c4ccc(C)cc4)c4ncc(F)cc34)nc21` [Compound B125], greater than 100 µM.
For `CCOC(=O)C1=CCCCC1n1cc(F)c2cnc(-c3c[nH]c4ncc(Cl)cc34)nc21` (stereo not drawn) [Compound B98], the IC50 is greater than 100 µM.
As for `CCOCCOCCCCC(=O)N[C@H]1CCC[C@@H](n2ccc3cnc(-c4c[nH]c5ncc(F)cc45)nc32)C1` (relative stereo) [Compound B100], the figure is 10 to 100 µM; as for `O=C(O)[C@@H]1C2CCC(CC2)[C@H]1n1cc(-c2ccccc2O)c2cnc(-c3c[nH]c4ncc(F)cc34)nc21` [Compound B165], 1 to 10 µM; as for `O=C(O)[C@H]1C2CCC(CC2)C1n1ccc2cnc(-c3c[nH]c4ncc(F)cc34)nc21` (stereo partly drawn) [Compound B120], less than 1 µM.
The result for `COC(=O)[C@@H]1C2CCC(CC2)[C@H]1n1cc(-c2ccccc2O)c2cnc(-c3c[nH]c4ncc(F)cc34)nc21` [Compound B170] reads 10 to 100 µM; that for `CC(C)(C)OC(=O)N1CCC(Cn2cc(F)c3cnc(-c4c[nH]c5ncc(F)cc45)nc32)CC1` [Compound B78], greater than 100 µM; that for `CNC(=O)N[C@@H]1CCC[C@@H](n2ccc3cnc(-c4c[nH]c5ncc(F)cc45)nc32)C1` [Compound B65], 1 to 10 µM.
As for `CC(Cn1cc(-c2c[nH]c3ncc(F)cc23)c2cncnc21)C(=O)O` (stereo not drawn) [Compound C7], the figure is 10 to 100 µM; as for `O=C(O)[C@H]1C2CCC(CC2)C1n1cc(Cl)c2cnc(-c3c[nH]c4ncc(F)cc34)nc21` (single isomer, unassigned) [Compound B132], less than 1 µM; as for `CCCCCOCCOCCNC(=O)N1CCC[C@H](n2ccc3cnc(-c4c[nH]c5ncc(F)cc45)nc32)C1` [Compound B33], 10 to 100 µM.
As to `CN(C)C(=O)N[C@H]1CCC[C@H](n2ccc3cnc(-c4c[nH]c5ncc(F)cc45)nc32)C1` [Compound B59], the IC50 is 10 to 100 µM.
The result for `CCOC(=O)[C@@H]1C2CCC(CC2)[C@H]1n1cc(F)c2cnc(-c3c[nH]c4ncc(C(F)(F)F)cc34)nc21` [Compound B217] reads greater than 100 µM.
As for `CN(C)C(=O)NCCn1cc(-c2c[nH]c3ncc(F)cc23)c2cncnc21` [Compound C16], the IC50 was greater than 100 µM.
As for `CCOC(=O)[C@]1(C)CCCC[C@H]1n1cc(F)c2cnc(-c3c[nH]c4ncc(F)cc34)nc21` [Compound B90], the figure is greater than 100 µM; as for `CNC(=O)C1=C(n2cc(F)c3cnc(-c4c[nH]c5ncc(Cl)cc45)nc32)C2CCC1CC2` [Compound B221], 1 to 10 µM; as for `CNC(=O)n1cc(-c2ncc3c(F)cn(CC4CCCCN4)c3n2)c2cc(F)cnc21` (stereo not drawn) [Compound B77], 10 to 100 µM.
Regarding `O=C(O)C[C@H](NC(=O)Cn1ccc2c(-c3c[nH]c4ncc(F)cc34)ncnc21)C(=O)O` [Compound A14], the IC50 lay in the range of 1 to 10 µM.
As for `C[C@@]1(C(=O)O)CCCC[C@H]1n1cc(F)c2cnc(-c3c[nH]c4ncc(Cl)cc34)nc21` [Compound B91], the figure is less than 1 µM.
With `CNC(=O)CNC(=O)[C@H]1C2CCC(CC2)[C@@H]1n1cc(Cl)c2cnc(-c3c[nH]c4ncc(F)cc34)nc21` [Compound B146], the IC50 was 1 to 10 µM.
The result for `CCOCCCCCOCCNC(=O)N[C@@H]1CCC[C@H](n2ccc3cnc(-c4c[nH]c5ncc(F)cc45)nc32)C1` [Compound B38] reads greater than 100 µM; that for `CCOCCOCCOCCNC(=O)N1CCC[C@H](n2ccc3cnc(-c4c[nH]c5ncc(F)cc45)nc32)C1` [Compound B31], 10 to 100 µM.
On to `CCOC(=O)C1=C(N2CCc3cnc(-c4c[nH]c5ncc(F)cc45)nc32)CCCC1` [Compound B51], for which the IC50 is greater than 100 µM.
The result for `O=C(O)[C@@H]1C2CCC(CC2)[C@H]1n1cc(-c2ccn[nH]2)c2cnc(-c3c[nH]c4ncc(F)cc34)nc21` [Compound B164] reads less than 1 µM.
The result for `CCOC(=O)c1cn([C@@H]2C3CCC(CC3)[C@H]2C(=O)O)c2nc(-c3c[nH]c4ncc(Cl)cc34)ncc12` [Compound B207] reads less than 1 µM.
Take `O=C(O)[C@@H]1CCCC[C@H]1n1ccc2cnc(-c3c[nH]c4ncc(F)cc34)nc21` (racemic) [Compound B15]: the IC50 was in the range of 1 to 10 µM.
The result for `COC(=O)[C@@H]1C2CCC(CC2)[C@H]1n1cc(-c2ccn[nH]2)c2cnc(-c3c[nH]c4ncc(F)cc34)nc21` [Compound B173] reads 1 to 10 µM; that for `CC(=O)N1CCCC(Cn2cc(F)c3cnc(-c4c[nH]c5ncc(F)cc45)nc32)C1` (stereo not drawn) [Compound B54], 1 to 10 µM.
The result for `O=C(O)[C@@H]1C2CCC(CC2)C1n1cc(F)c2cnc(-c3c[nH]c4ncc(Cl)cc34)nc21` (single isomer, unassigned) [Compound B143] reads less than 1 µM; that for `CCOC(=O)[C@H]1C2CCC(CC2)[C@@H]1n1cc(C#CCCSC)c2cnc(-c3c[nH]c4ncc(F)cc34)nc21` [Compound B185], greater than 100 µM; that for `CCOC(=O)[C@@H]1C2CCC(CC2)[C@H]1n1cc(F)c2cnc(-c3c[nH]c4ncc(C#N)cc34)nc21` [Compound B215], greater than 100 µM.
The result for `O=C(O)[C@H]1CCCC1n1ccc2cnc(-c3c[nH]c4ncc(F)cc34)nc21` (single isomer, unassigned) [Compound B21] reads 1 to 10 µM; that for `CC(C)c1cn([C@@H]2C3CCC(CC3)[C@H]2C(=O)O)c2nc(-c3c[nH]c4ncc(F)cc34)ncc12` [Compound B175], less than 1 µM.
As to `O=C(Cn1ccc2c(-c3c[nH]c4ncc(F)cc34)ncnc21)N[C@@H](Cc1ccccc1)C(=O)O` [Compound A11], the IC50 lay within 10 to 100 µM.
Take `CN(C)C(=O)CCn1ccc2cnc(-c3c[nH]c4ncc(F)cc34)nc21` [Compound B2]: the IC50 is 10 to 100 µM.
As for `CCOCc1ccc(C(=O)N[C@H]2CCC[C@@H](n3cc(F)c4cnc(-c5c[nH]c6ncc(Cl)cc56)nc43)C2)nc1` [Compound B101], the figure is greater than 100 µM.
On to `N#Cc1cnccc1-c1cn([C@@H]2C3CCC(CC3)[C@H]2C(=O)O)c2nc(-c3c[nH]c4ncc(Cl)cc34)ncc12` [Compound B220], for which the IC50 is 10 to 100 µM.
The result for `CSCCCCc1cn([C@@H]2C3CCC(CC3)[C@H]2C(=O)O)c2nc(-c3c[nH]c4ncc(F)cc34)ncc12` [Compound B192] reads less than 1 µM.
As for `N[C@H]1CC[C@@H](n2ccc3cnc(-c4c[nH]c5ncc(F)cc45)nc32)CC1` [Compound B69], the figure is 10 to 100 µM; as for `CCCCCOCCCCCN(C)C(=O)N[C@@H]1CCC[C@H](n2ccc3cnc(-c4c[nH]c5ncc(F)cc45)nc32)C1` [Compound B44], greater than 100 µM; as for `CCOC(=O)[C@@H]1C2CCC(CC2)[C@H]1n1cc(C(F)(F)F)c2cnc(-c3c[nH]c4ncc(F)cc34)nc21` [Compound B177], 10 to 100 µM.

One may read the IC50 as the concentration at which inhibition is half-maximal.

These data come from patent publication US11014941B2, “Pyrrolopyrimidine derivatives useful as inhibitors of influenza virus replication” (priority 2017, dated 2021).
